The values below come from PMC4260220 (Scientific Reports, 2014).

The target in the assay is T1, PPARγ (Homo sapiens, UniProt P37231).
T1 sequence (P37231 231-505 limits assumed): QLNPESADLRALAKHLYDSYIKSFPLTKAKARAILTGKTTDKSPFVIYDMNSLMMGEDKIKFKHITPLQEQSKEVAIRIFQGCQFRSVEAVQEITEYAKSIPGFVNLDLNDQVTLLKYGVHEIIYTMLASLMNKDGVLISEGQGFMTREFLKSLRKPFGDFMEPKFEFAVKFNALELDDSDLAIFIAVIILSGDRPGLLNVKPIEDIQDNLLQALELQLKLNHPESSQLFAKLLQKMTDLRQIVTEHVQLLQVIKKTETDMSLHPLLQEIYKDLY
The assay is described as follows: competitive TR-FRET binding assay. In general terms: TR-FRET usually uses a lanthanide donor and a delayed reading to cut background.

The term Ki denotes a dissociation constant, usually derived from enzyme kinetics or from competition with a known ligand. Low readings indicate higher affinity, high ones lower affinity. As for `CC(C)=CCC[C@](C)(O)[C@H]1CC[C@]2(C)[C@@H]1[C@H](O)C[C@@H]1[C@@]3(C)CC[C@H](O)C(C)(C)[C@@H]3[C@@H](O)C[C@]12C` [PPT, 20(S)-5α-Dammar-24-ene-3β,6α,12β,20-tetrol], affinity was put at a Ki of 4.2 µM.
